Results from patent US7595345B2, “Vitamin D receptor modulators” (Eli Lilly and Company, priority 2003, dated 2009).

How the values were obtained:
[1] = system: IL-10 production in PBMCs; assay: Human IL-10 induction assay; assay type: cell-based; conditions: PBMC; TPA/PHA treated human PBMCs, IL-10 in supernatant by immunoassay
Description: 6. The IL-10 Induction Assay
This is an in vitro efficacy assay for psoriasis, abscess and adhesion. Psoriasis involves both keratinocytes and immune cells. IL-10 is a unique cytokine because it is anti-inflammatory and immunosuppressive. This assay tells us whether a VDRM is able to function as an agonist in PBMCs (primary blood mononuclear cells) or not. A lower EC50 value is desirable in this assay since a compound with a lower EC50 value will be a better agonist in PBMCs. […] 7. Other Compound Assay Standards An alternative measure of the efficacy of compounds of the invention for treatment of osteoporosis is a numerical ratio calculated as follows: • Dose Threshold needed to induce hypercalcemia • divided by • Dose Threshold needed for bone efficacy An alternative measure of the efficacy of compounds of the invention for treatment of psoriasis is a numerical ratio calculated as follows: • Dose Threshold needed to induce hypercalcemia • divided by • Dose Threshold needed to induce keratinocyte proliferation For the above ratios, Dose Thresholds are determined from dose response curve data. 8. The CaT1 (Calcium Transport Protein 1) Assay The CaT1 Assay is an indicator for the undesirable condition of hypercalcemia. The higher the EC50 values for a compound the less calcemic it will be in vivo. […] Preferred assay results are greater than 1000 nM. Details of the Assay Methods: (1) Materials and Method for RXR-VDR Heterodimerization Assay: Transfection Method:
(6) Materials and Method for Human IL-10 Induction Assay:
Isolation of peripheral blood mononuclear cells (PBMCs): • A. Collect 50 ml of human blood and dilute with media, RPMI-1640. • B. Prepare sterile tubes with ficol. • C. Add diluted blood to tubes. • D. Centrifuge. • E. Discard the top layer and collect the cells from middle layer. • F. Divide all cells into four tubes and add media. • G. Centrifuge. • H. Aspirate off media and resuspend. • I. Collect all cells • J. Centrifuge. at 1200 rpm for 10 minutes. • K. Resuspend in RPMI-1640 with 2% FBS and count cells
Stimulation of PBMC: • L. Prepare TPA in DMSO. • M. Dissolve PHA in water. • N. Plate TPA/PHA treated PBMCs in well plates. • O. Incubate.
Treatment: • P. Prepare all compound dilutions in plain RPMI-1640 media. • Q. Add diluted compound. • R. Incubate.
Sample Collection and Assay: • S. Remove all the cells by centrifugation and assay the supernatant for IL-10 by immunoassay. • 1) T. Perform IL-10 assay using anti-human IL-10 antibody coated beads, as described by the manufacturer (Linco Research Inc., St. Charles, Mo.).

KERtr cells = assay: Keratinocyte proliferation assay; assay type: cell-based; conditions: Homo sapiens, 72 hr, BrdU incorporation, read-out: Kera. Prolif. IC50
Protocol: 5. The Keratinocyte Proliferation Assay
This Assay is indicative for the treatment of psoriasis.
(5) The Keratinocyte Proliferation Assay:
KERtr cells (Human skin keratinocyte transformed with a retrovirus vector, obtained from ATCC) were plated in 96-well flat-bottomed plates (3000 cells/well) in 100 µl keratinocyte serum free medium supplemented with bovine pituitary extract in the absence of EGF (Life Technologies, Rockville, Md.) and incubated at 37° C. for two days. The cells were treated with various concentrations of VDR ligands (ten-fold serial dilution from 10,000 nM to 0.1 nM in triplicate), dissolved in 100 µl keratinocyte serum free medium supplemented with bovine pituitary extract in the absence of EGF and incubated at 37° C. for 72 hr. BrdU (5-bromo-2′-deoxyuridine) incorporation was analyzed as a measure of DNA replication (Cell proliferation ELISA kit, Roche Diagnostics, Indianapolis, Ind.) and absorbance was measured at 405 nm. Potency values (IC50) values were determined as the concentration (nM) of compound that elicited a half-maximal response.

[2] = Mouse hypercalcemia assay; assay type: in vivo; conditions: female DBF mice, oral gavage for 6 days, serum ionized calcium 6 hours after last dosing
Description: 4. The Mouse Hypercalcemia Assay
(4) Materials and Method for the Mouse Hypercalcemia Assay: […]

rat osteocalcin promoter = assay: OCN (osteocalcin) promoter assay; assay type: cell-based; conditions: RG-15 (ROS 17/2.8) cells, 48 hr treatment, luciferase
Protocol: 3. The OCN (Osteocalcin) Promoter Assay
The OCN Promoter Assay is an indicator and marker for osteoporosis. Desired assay results are EC50 less than or equal to […]. Preferred assay results are less than […].
(3) Materials and Method for the OCN Promoter Assay:
The activation of osteocalcin by VDR ligands was evaluated in a rat osteoblast-like cell line RG-15 (ROS 17/2.8) stably expressing rat osteocalcin promoter fused with luciferase reporter gene. The stable cell lines were established as reported before (Activation of Osteocalcin Transcription involves interaction of protein kinase A- and Protein kinase C-dependent pathways. Boguslawski, G., Hale, L. V., Yu, X.-P., Miles, R. R., Onyia, J. E., Santerre R. F., Chandrasekhar, S. J. Biol. Chem. 275, 999-1006, 2000). Confluent RG-15 cells maintained in DMEM/F-12 medium (3:1) containing 5% FBS, 300 µg/ml G418 and at 37° C. under 5% CO2/95% air atmosphere were trypsinized (0.25% trypsin) and plated into white opaque 96-well cell culture plates (25000 cells/well). After 24 hr, cells (in DMEM/F-12 medium+2% FBS) were treated with various concentrations of compounds, dissolved in DMSO. The final DMSO concentration remained at 0.01% (v/v). After 48 hr treatment, the medium was removed, cells were lysed with 50 µl of lysis buffer (From Luciferase reporter assay system, Roche Diagnostics, Indianapolis, Ind.) and assayed for luciferase activity using the Luciferase Reporter Gene Assay kit from Boehringer Mannheim as per manufacturer's specifications.

VDR (pGal4-VDR-LBD) = target: T1, VDR (pGal4-VDR-LBD) (Homo sapiens, UniProt P11473); assay: VDR CTF (Caco-2 cell co-transfection assay); assay type: cell-based; conditions: Caco-2 cells, Gal4-responsive reporter pFRLuc; surrogate for calcemic activity
T1 construct: the receptor expression vector pGal4-VDR-LBD (10 ng); expressed in transfected cells; host or cells: Caco-2 cells
T1 sequence (P11473 127-423 limits assumed): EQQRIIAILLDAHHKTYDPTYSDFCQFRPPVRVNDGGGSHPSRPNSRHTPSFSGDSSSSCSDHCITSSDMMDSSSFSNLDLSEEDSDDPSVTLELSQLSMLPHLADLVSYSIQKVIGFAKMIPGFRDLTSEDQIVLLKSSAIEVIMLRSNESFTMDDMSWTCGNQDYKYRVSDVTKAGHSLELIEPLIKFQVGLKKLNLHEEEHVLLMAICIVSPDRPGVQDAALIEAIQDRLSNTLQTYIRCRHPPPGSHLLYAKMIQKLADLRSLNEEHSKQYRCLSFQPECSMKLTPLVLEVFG
Protocol: 2. The Caco-2 Cell Co-Transfection Assay:
The Caco-2 cell assay is an indicator for the undesirable condition of hypercalcemia. This co-transfection assay is a surrogate assay for in vivo calcemic activity of VDR ligands. […] Preferred assay results are greater than 1000 nM.
(2) Materials and Method for the Caco-2 Cell Assay:
Caco-2 cells, grown in phenol red free, DMEM (Invitrogen, Carlsbad, Calif.) containing 10% charcoal-stripped FCS (Hyclone, Logan, Utah), were transfected with Fugene 6 reagent (Roche Diagnostics, Indianapolis, Ind.). Cells (5000/well) were plated 18 h before transfection in a 96 well plate. The Cells were transfected with Gal4-responsive reporter pFRLuc (150 ng, Stratagene, La Jolla Calif.) and the receptor expression vector pGal4-VDR-LBD (10 ng), along with Fugene 6 reagent (0.2 μl/well). The DNA-Fugene complex was formed by incubating the mixture for 30 min at room temperature. The cells were transfected in triplicate for 5 h, and treated with various concentrations of VDR ligands (form 0.01 nM to 10,000 nM concentration range) 18 h post-transfection. The luciferase activity was quantified using Steady-Glo reagent kit (Promega, Madison, Wis.) as per manufacturer's specifications.

Row | Mouse Hypercal [2] | EC50 (rat osteocalcin promoter; Rattus norvegicus, 48 h) | EC50 (VDR (pGal4-VDR-LBD)) | EC50 (rat osteocalcin promoter) | SMILES | IC50 [1] | IC50 (KERtr cells)
1 |  |  |  |  | C=C1/C(=C\C=C2/CCC[C@]3(C)[C@@H]([C@H](C)/C=C/[C@@H](O)C4CC4)CC[C@@H]23)C[C@@H](O)C[C@@H]1O [FF, calcipotriol, reference compound] | 0.5 nM | 103 nM
2 | 1000 µg/kg/day | 341 nM |  |  | CCC(CC)(c1ccc(OCC(=O)C(C)(C)C)c(C)c1)c1ccc(OC[C@H](O)C(C)(C)C)c(C)c1 [EE, reference compound] |  | 
3 | 300 µg/kg/day | 1.2 nM | 397 nM | 1.7 nM | CCC(O)(C#Cc1ccc(C(CC)(CC)c2ccc(C(=O)NC(C)(C)C(=O)O)c(C)c2)cc1C)CC [Ex. 2, 2-(4-{1-Ethyl-1-[4-(3-ethyl-3-hydroxy-pent-1-ynyl)-3-methyl-phenyl]-propyl}-2-methyl-benzoylamino)-2-methyl-propionic acid] | 24 nM | 21 nM
4 | 1000 µg/kg/day | 31.1 nM |  |  | CCC(CC)(c1ccc(OCC(=O)C(C)(C)C)c(C)c1)c1ccc(OCC(=O)C(C)(C)C)c(C)c1 [DD, reference compound] |  | 1060 nM

Row | SMILES | Mouse Hypercal [2] | EC50 (rat osteocalcin promoter; Rattus norvegicus, 48 h) | EC50 (VDR (pGal4-VDR-LBD)) | EC50 (rat osteocalcin promoter) | IC50 [1] | IC50 (KERtr cells)
5 | CCC(CC)(c1ccc(OCC(O)CO)c(C)c1)c1ccc(OCC(O)C(C)(C)C)c(C)c1 (stereo not drawn) [BB, 3-(4-{1-Ethyl-1-[4-(2-hydroxy-3,3-dimethyl-butoxy)-3-methyl-phenyl]-propyl}-2-methyl-phenoxy)-propane-1,2-diol, reference compound] | 20 µg/kg/day | 8.24 nM |  |  | 28 nM | 10 nM
6 | C=C1/C(=C\C=C2/CCC[C@]3(C)[C@@H]([C@H](C)CCCC(C)(C)O)CC[C@@H]23)C[C@@H](O)C[C@@H]1O [AA, 1α,25-dihydroxyvitamin D3, reference compound] | 0.06 µg/kg/day |  |  |  |  | 
